# In ChEMBL document CHEMBL1140113, “Structural requirements for drug inhibition of the liver specific human organic cation transport protein 1” (J Med Chem, 2008):
# pIC50: −log10 of the molar value.
# Molecular target: T1, Solute carrier family 22 member 1 (Homo sapiens, UniProt O15245)
# T1 sequence (O15245 whole entry): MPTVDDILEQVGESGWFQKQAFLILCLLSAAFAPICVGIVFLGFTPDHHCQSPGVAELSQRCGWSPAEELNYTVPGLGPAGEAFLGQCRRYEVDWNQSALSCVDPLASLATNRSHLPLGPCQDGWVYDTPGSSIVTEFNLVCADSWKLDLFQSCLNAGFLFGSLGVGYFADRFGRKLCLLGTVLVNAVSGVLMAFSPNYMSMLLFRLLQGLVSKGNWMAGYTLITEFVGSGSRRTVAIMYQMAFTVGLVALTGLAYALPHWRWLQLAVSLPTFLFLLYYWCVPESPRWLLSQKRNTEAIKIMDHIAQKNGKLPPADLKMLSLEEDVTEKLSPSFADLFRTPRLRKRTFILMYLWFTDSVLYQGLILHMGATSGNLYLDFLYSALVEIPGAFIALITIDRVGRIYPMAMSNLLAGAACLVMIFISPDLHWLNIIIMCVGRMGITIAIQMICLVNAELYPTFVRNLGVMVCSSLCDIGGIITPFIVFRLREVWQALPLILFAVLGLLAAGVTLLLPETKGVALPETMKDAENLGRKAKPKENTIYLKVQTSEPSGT
# Test: not given
# Assay type: cell-based, HEK293
# Conditions: not given
row,SMILES,pIC50
1,Cc1nccn1CC1CCc2c(c3ccccc3n2C)C1=O (configuration not stated) [ONDANSETRON],4.69
2,CN(C)CCCN1c2ccccc2Sc2ccccc21 [PROMAZINE],4.76
3,CNCCCN1c2ccccc2CCc2ccccc21 [DESIPRAMINE],4.25
4,CN1CCc2cccc3c2[C@H]1Cc1ccc(O)c(O)c1-3 [APOMORPHINE],4.68
5,COc1cc(NS(C)(=O)=O)ccc1Nc1c2ccccc2nc2ccccc12 [AMSACRINE],5.30
6,COc1ccc([C@@H]2Sc3ccccc3N(CCN(C)C)C(=O)[C@@H]2OC(C)=O)cc1 [DILTIAZEM],4.91
7,OCCN1CCN(CCCN2c3ccccc3Sc3ccc(C(F)(F)F)cc32)CC1 [FLUPHENAZINE],3.96
8,COc1ccc(CCNC[C@H](O)c2ccc(O)cc2)cc1OC [DENOPAMINE],4.33
9,N=C(N)NC(=O)c1nc(Cl)c(N)nc1N [AMILORIDE],4.24
10,CN(C)CCCC1(c2ccc(F)cc2)OCc2cc(C#N)ccc21 (configuration not stated) [CITALOPRAM],4.73

# Molecular target: T2, OCT1 (SLC22A1) (Homo sapiens, UniProt O15245)
# T2 sequence (O15245 whole entry): T1 sequence (O15245 whole entry)
# Test: in vitro
# Conditions: HEK293 cells that express human OCT1, probe 4-(4-(dimethylamino)styryl)-N-methylpyridinium
row,SMILES,inhibition at 100 µM [%]
1,CN(C)CCCN1c2ccccc2Sc2ccccc21 [PROMAZINE],79.2
2,CN1CCc2cccc3c2[C@H]1Cc1ccc(O)c(O)c1-3 [APOMORPHINE],69
3,COc1cc(NS(C)(=O)=O)ccc1Nc1c2ccccc2nc2ccccc12 [AMSACRINE],68.4
4,COc1ccc([C@@H]2Sc3ccccc3N(CCN(C)C)C(=O)[C@@H]2OC(C)=O)cc1 [DILTIAZEM],65.5
5,OCCN1CCN(CCCN2c3ccccc3Sc3ccc(C(F)(F)F)cc32)CC1 [FLUPHENAZINE],61.9
6,N=C(N)NC(=O)c1nc(Cl)c(N)nc1N [AMILORIDE],68.7
7,Nc1nc2ncc(CNc3ccc(C(=O)N[C@@H](CCC(=O)O)C(=O)O)cc3)nc2c(=O)[nH]1 [FOLIC ACID],33
8,NS(=O)(=O)c1cc(C(=O)O)c(NCc2ccco2)cc1Cl [FUROSEMIDE],11.7
9,NCCS [CYSTEAMINE],2.4
10,COc1cc([C@@H]2c3cc4c(cc3[C@@H](O[C@@H]3O[C@@H]5CO[C@@H](C)O[C@H]5[C@H](O)[C@H]3O)[C@H]3COC(=O)[C@H]23)OCO4)cc(OC)c1O [ETOPOSIDE],7.5
11,CCN(CC)CCNC(=O)c1ccc(N)cc1 [PROCAINAMIDE],26.5
12,Cc1ccccc1C(OCCN(C)C)c1ccccc1 (configuration not stated) [ORPHENADRINE],77.6
13,CC(=O)S[C@@H]1CC2=CC(=O)CC[C@]2(C)[C@H]2CC[C@@]3(C)[C@@H](CC[C@@]34CCC(=O)O4)[C@H]12 [SPIRONOLACTONE],87.9
14,COc1ccc(Cc2nccc3cc(OC)c(OC)cc23)cc1OC [PAPAVERINE],66.3
15,N=C(N)NCCCCN [AGMATINE],2.1
16,COc1ccc2c3c1O[C@H]1[C@@H](O)C=C[C@H]4[C@@H](C2)N(C)CC[C@@]341 [CODEINE],39.1
17,CC(=O)N[C@H]1[C@H]([C@H](O)[C@H](O)CO)OC(C(=O)O)=C[C@@H]1N=C(N)N [ZANAMIVIR],2

row,SMILES,inhibition at 100 µM [%]
1,NCC(CC(=O)O)c1ccc(Cl)cc1 (configuration not stated) [BACLOFEN],20.7
2,CC1(C)S[C@@H]2[C@H](NC(=O)[C@H](N)c3ccccc3)C(=O)N2[C@H]1C(=O)O [AMPICILLIN],20.3
3,Cc1cnc(C(=O)NCCc2ccc(S(=O)(=O)NC(=O)NC3CCCCC3)cc2)cn1 [GLIPIZIDE],-12.7
4,CN1[C@@H]2CC[C@H]1C[C@@H](OC(=O)C(CO)c1ccccc1)C2 (some centres not stated) [ATROPINE],76.5
5,CC(=O)O[C@H]1C[C@@H]2CC[C@@H]3[C@H](CC[C@@]4(C)[C@H]3C[C@H]([N+]3(C)CCCCC3)[C@@H]4OC(C)=O)[C@@]2(C)C[C@@H]1[N+]1(C)CCCCC1 [PANCURONIUM],-10.3
6,Cn1cc[nH]c1=S [METHIMAZOLE],11.6
7,CC(C)(C)NC(=O)[C@@H]1CN(Cc2cccnc2)CCN1C[C@@H](O)C[C@@H](Cc1ccccc1)C(=O)N[C@H]1c2ccccc2C[C@H]1O,43
8,COCCc1ccc(OCC(O)CNC(C)C)cc1 (configuration not stated) [METOPROLOL],32.4
9,CC(=O)N[C@@H](CS)C(=O)O [ACETYLCYSTEINE],15.5
10,CC(C)(C)NC[C@H](O)COc1nsnc1N1CCOCC1 [TIMOLOL],39
11,CC1COc2c(N3CCN(C)CC3)c(F)cc3c(=O)c(C(=O)O)cn1c23 (configuration not stated) [OFLOXACIN],21.1
12,O=C(N[C@H](CO)[C@H](O)c1ccc([N+](=O)[O-])cc1)C(Cl)Cl [CHLORAMPHENICOL],1.4
13,O=c1[nH]cc(F)c(=O)[nH]1 [FLUOROURACIL],0.9
14,Cc1ccc(-c2cc(C(F)(F)F)nn2-c2ccc(S(N)(=O)=O)cc2)cc1 [CELECOXIB],7.7
15,COc1cc2c(c(OC)c1OC)-c1ccc(OC)c(=O)cc1[C@@H](NC(C)=O)CC2 [COLCHICINE],31.9
16,C[C@H](CS)C(=O)N1CCC[C@H]1C(=O)O [CAPTOPRIL],0.3

# Same assay, conditions: hek293
row,SMILES,inhibition at 100 µM [%]
1,Cc1nccn1CC1CCc2c(c3ccccc3n2C)C1=O (configuration not stated) [ONDANSETRON],63.8
2,CNCCCN1c2ccccc2CCc2ccccc21 [DESIPRAMINE],84.3
3,COc1ccc(CCNC[C@H](O)c2ccc(O)cc2)cc1OC [DENOPAMINE],51.5
4,CN(C)CCCC1(c2ccc(F)cc2)OCc2cc(C#N)ccc21 (configuration not stated) [CITALOPRAM],52
